Results: patent US5539119A, “Indole derivatives” (priority 1990, dated 1996)
Like-named read-outs stand apart in the source and are kept apart here.

Columns and labels:
[1] = target: T1, δ opioid receptor (Cavia porcellus, UniProt A0A286XTF2); test: Bonding (binding) assay, guinea pig brain homogenate, DPDPE (hot) / DADLE (cold)
T1 construct: the homogenate of the brain of a guinea pig; from tissue; host or cells: guinea pig brain homogenate
Method: (§1) In the test for bonding, the homogenate of the brain of a guinea pig was diluted with Tris buffer in a ratio calculated to give to the produced solution a protein content of 0.7 mg per prot/tube was used as incorporated in the reaction solution. With regard to ligands for binding assay, 3H-DAGO (μ), DPDPE (δ), and EKC (κ) were used for hot samples and naloxone (μ), DADLE (δ), and naloxone (κ) for cold samples.

[2] = target: T2, κ opioid receptor (Cavia porcellus, UniProt P41144); test: Bonding (binding) assay, guinea pig brain homogenate, EKC (hot) / naloxone (cold)
T2 construct: the homogenate of the brain of a guinea pig; from tissue; host or cells: guinea pig brain homogenate
Method: as §1

[3] = tested on: Mouse Vas Deferens (MVD); test: Agonist activity in Mouse Vas Deferens (MVD); details: read-out: MVD IC50
Method: (§2) The test of the compounds of this invention for agonist and antagonist activities was carried out in according to the method proposed by Takemori et al. (Takemori, A, E. et al.: Eur. J. Pharmacal., 1982, 85, 163) using Guinea Pig Ileal Longitudinal Muscle Mouse Vas Deferens (MVD).

[4] = target: T3, δ-receptor (Mus musculus, UniProt P32300); test: Antagonism to DPDPE in Mouse Vas Deferens (MVD)
T3 construct: from tissue; host or cells: mouse vas deferens

[5] = tested on: Guinea Pig Ileal Longitudinal Muscle; test: Agonist activity in Guinea Pig Ileal Longitudinal Muscle (GPI); details: guinea pig ileum
Method: as §2

[6] = tested on: Guinea Pig Ileal Longitudinal Muscle; test: GPI, shift of the compound's effect by naloxone or nor-BNI; design: GPI nor-BN1 Ke: unit not given here
Method: as §2

[7] = target: T4, μ opioid receptor (Cavia porcellus, UniProt A0ACM8Q262); test: Bonding (binding) assay, guinea pig brain homogenate, 3H-DAGO (hot) / naloxone (cold); details: for Ki: guinea pig brain homogenate; for Ki ratio κ/μ: selectivity ratio
T4 construct: 3H-DAGO (DAMGO) radioligand, cold naloxone
Method: as §1

[8] = tested on: δ opioid receptor; test: Bonding (binding) assay, guinea pig brain homogenate, DPDPE (hot) / DADLE (cold); details: μ/δ
Method: as §1

[9] = tested on: mouse T cells; test: Inhibiting proliferation of mouse T cells by Con-A stimulation ([3H]thymidine uptake, spleen cells); assay type: cell-based
Method: Now, the immunosuppressive activity of the compound 19 which is representative of the compounds of the present invention will be shown. Activity in inhibiting proliferation of mouse T cells by Con-A stimulation
A monocellular suspension was prepared by sterilely removing the spleen from a mouse and passing the spleen through a mesh. This suspension was adjusted to a concentration of 5×10^6 cells/ml and dispensed by the unit of 100 μl in all the individual wells of a 96-well plate. […] Eight hours before completion of the incubation, [^3 H]thymidine was added to the contents of the wells in a fixed ratio of 2 μCi/10 μl/well. Eight hours after this addition, the cells in the wells were collected on filter papers with the aid of a cell harvester. The cells on the filter papers were dried, then combined with a toluene type scintillator, and counted for the radioactivity of the [^3 H] thymidine occluded in the cells by means of a scintillation counter.
The ratio of suppression of T cell proliferation was calculated in accordance with the following formula:
Rate of suppression=(Radioactivity in the absence of compound-Radioactivityafter addition of compound)/(Radioactivity in the absence of compound-Radioactivity in the absence of ConA)

[10] = MVD Antagonism to DPDPE, pA2, (20 nM)
[11] = MVD Antagonism to DPDPE, pA2, (50 nM)
[12] = Mus musculus, T-cell, ConA-stimulated mouse T cells, read-out: IC50, activity in inhibiting T cell hyperplasia (Table 3)
[13] = MVD Antagonism to DPDPE at 100 nM, pA2, at 100 nM
[14] = Mus musculus, T-cell, 48 h, read-out: Ratio of suppression of T cell proliferation
[15] = guinea pig brain homogenate, read-out: Bonding assay Ki value δ

T1 sequence (A0A286XTF2 1-366): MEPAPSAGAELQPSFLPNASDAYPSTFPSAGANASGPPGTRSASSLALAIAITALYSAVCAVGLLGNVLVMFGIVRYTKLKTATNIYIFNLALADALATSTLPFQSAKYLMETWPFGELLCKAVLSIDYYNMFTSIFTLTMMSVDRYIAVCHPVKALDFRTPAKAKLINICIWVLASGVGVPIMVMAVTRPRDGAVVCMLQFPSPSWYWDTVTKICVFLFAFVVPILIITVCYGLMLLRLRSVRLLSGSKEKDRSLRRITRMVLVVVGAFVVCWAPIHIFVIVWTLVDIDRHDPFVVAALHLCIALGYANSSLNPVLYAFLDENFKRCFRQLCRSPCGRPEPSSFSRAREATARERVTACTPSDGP
T2 sequence (P41144 whole entry): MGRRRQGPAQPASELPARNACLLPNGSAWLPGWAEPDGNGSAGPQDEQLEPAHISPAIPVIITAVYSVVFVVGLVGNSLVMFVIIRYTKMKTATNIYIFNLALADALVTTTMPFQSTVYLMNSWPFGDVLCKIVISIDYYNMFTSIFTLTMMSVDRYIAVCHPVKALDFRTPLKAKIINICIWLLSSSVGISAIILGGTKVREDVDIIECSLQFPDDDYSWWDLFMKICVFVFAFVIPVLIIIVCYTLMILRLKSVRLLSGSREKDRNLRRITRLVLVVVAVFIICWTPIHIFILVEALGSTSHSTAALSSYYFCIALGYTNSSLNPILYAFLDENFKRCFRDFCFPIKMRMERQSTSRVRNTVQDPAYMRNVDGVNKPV
T4 sequence (A0ACM8Q262 1-400): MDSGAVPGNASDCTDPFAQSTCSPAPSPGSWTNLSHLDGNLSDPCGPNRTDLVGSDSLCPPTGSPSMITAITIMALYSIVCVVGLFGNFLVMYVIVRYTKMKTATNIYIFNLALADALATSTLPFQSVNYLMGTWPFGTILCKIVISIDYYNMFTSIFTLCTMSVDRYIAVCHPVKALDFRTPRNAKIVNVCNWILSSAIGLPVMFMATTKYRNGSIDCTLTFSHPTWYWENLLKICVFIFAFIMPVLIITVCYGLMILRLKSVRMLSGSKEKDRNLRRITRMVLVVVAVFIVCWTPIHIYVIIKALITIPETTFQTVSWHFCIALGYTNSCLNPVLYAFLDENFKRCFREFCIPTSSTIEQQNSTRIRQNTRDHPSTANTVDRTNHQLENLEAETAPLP
T3 sequence (P32300 whole entry): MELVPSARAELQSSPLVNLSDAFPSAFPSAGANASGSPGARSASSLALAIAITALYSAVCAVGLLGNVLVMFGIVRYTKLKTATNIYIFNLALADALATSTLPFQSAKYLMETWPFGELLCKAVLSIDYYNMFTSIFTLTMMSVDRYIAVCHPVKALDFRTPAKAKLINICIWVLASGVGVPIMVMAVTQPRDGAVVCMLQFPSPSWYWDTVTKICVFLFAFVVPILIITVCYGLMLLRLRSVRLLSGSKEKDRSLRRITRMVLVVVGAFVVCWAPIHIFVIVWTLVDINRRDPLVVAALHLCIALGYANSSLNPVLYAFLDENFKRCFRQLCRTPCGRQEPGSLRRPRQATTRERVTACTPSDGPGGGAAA

CN1CC[C@]2(c3cccc(O)c3)Cc3[nH]c4ccccc4c3C[C@@]2(O)C1 (relative stereo) [Compound 54, 2-Methyl-4aα-(3-hydroxyphenyl)-11aβ-hydroxy-1,2,3,4,4a,5,11,11a-octahydro-6H-indolo[2,3-q]isoquinoline]
Ki [1]: 0.00275 µM
Ki [2]: 0.662 µM
IC50 [3]: 10.2 µM
MVD Antagonism to DPDPE, DR ([4]; (50 nM)): 22.4
Kb [4, 10]: 0.00575 µM
Kb [4, 11]: 0.0017 µM
IC50 [5]: 5.96 µM
GPI naloxone DR [6]: 1.30
GPI nor-BN1 DR [6]: 3.30
GPI nor-BN1 Ke [6]: 8.70
GPI nor-BN1 pA2 [6]: 8.06

Cn1c2c(c3ccccc31)C[C@H]1CN(CC3CC3)CC[C@]1(c1cccc(O)c1)C2 (relative stereo) [Compound 25, 2-Cyclopropylmethyl-4aα-(3-hydroxyphenyl)-1,2,3,4,4a,5,11,11aβ-octahydro-6-methyl-indolo[2,3-g]isoquinoline]
Ki [7]: 1.53 µM
Ki ratio κ/μ [7]: 0.09
Ki [1]: 0.00277 µM
Ki ratio μ/δ [8]: 52.0
Ki ratio μ/δ ([8]; selectivity ratio): 552
Ki [2]: 0.144 µM
IC50 [5]: 14.5 µM
GPI naloxone DR [6]: 0.55
GPI nor-BN1 DR [6]: 0.77
IC50 [9, 12]: 3 µg/mL

Oc1cccc([C@]23CCN(CC4CC4)C[C@@H]2Cc2c([nH]c4ccc(F)cc24)C3)c1 (relative stereo) [Compound 37, 2-Cyclopropylmethyl-4aα-(3-hydroxyphenyl)-9-fluoro-1,2,3,4,4a,5,11,11aβ-octahydro-6H-indolo[2,3-g]isoquinoline]
Ki [7]: 1.55 µM
Ki ratio κ/μ [7]: 0.22
Ki [1]: 0.00694 µM
Ki ratio μ/δ [8]: 49.3
Ki ratio μ/δ ([8]; selectivity ratio): 223
Ki [2]: 0.342 µM
Kb [4, 13]: 0.00631 µM
MVD Antagonism to DPDPE at 100 nM, DR ([4]; at 100 nM): 8.93
IC50 [5]: 10.5 µM
GPI naloxone DR [6]: 1.19
GPI nor-BN1 DR [6]: 1.26
IC50 [9, 12]: 1.9 µg/mL

Oc1cccc([C@]23CCN(CC4CC4)C[C@]2(O)Cc2c([nH]c4ccccc24)C3)c1 (relative stereo) [Compound 56]
Ki [7]: 0.723 µM
Ki ratio κ/μ [7]: 2.14
Ki [1]: 0.00171 µM
Ki ratio μ/δ [8]: 906
Ki ratio μ/δ ([8]; selectivity ratio): 423
Ki [2]: 1.55 µM
IC50 [9, 12]: 14 µg/mL

Oc1cccc([C@]23CCN(CC4CC4)C[C@@H]2Cc2c([nH]c4ccccc24)C3)c1 (single isomer, unassigned) [Compound 47, (+)-2-Cyclopropylmethyl-4aα-(3-hydroxyphenyl)-1,2,3,4,4a,5,11,11aβ-octahydro-6H-indolo[2,3-g]isoquinoline]
Ki [7]: 1.17 µM
Ki [1]: 0.00037 µM
Ki [2]: 0.388 µM
MVD Antagonism to DPDPE, DR ([4]; (20 nM)): 4.44
MVD Antagonism to DPDPE, DR ([4]; (50 nM)): 30.5
Kb [4, 10]: 0.00575 µM
Kb [4, 11]: 0.0017 µM
IC50 [5]: 64.5 µM
GPI naloxone DR [6]: 1.06
GPI nor-BN1 DR [6]: 1.29
IC50 [9, 12]: 3.8 µg/mL

Oc1cccc([C@]23CCN(CC4CC4)C[C@@H]2Cc2c([nH]c4c(Cl)cccc24)C3)c1 (relative stereo) [Compound 40, 2-Cyclopropylmethyl-4aα-(3-hydroxyphenyl)-7-chloro-1,2,3,4,4a,5,11,11aβ-octahydro-6H-indolo[2,3-g]isoquinoline]
Ki [7]: 1.65 µM
Ki ratio κ/μ [7]: 0.57
Ki [1]: 0.00831 µM
Ki ratio μ/δ [8]: 113
Ki ratio μ/δ ([8]; selectivity ratio): 199
Ki [2]: 0.936 µM
MVD Antagonism to DPDPE, DR ([4]; (20 nM)): 3.02
MVD Antagonism to DPDPE, DR ([4]; (50 nM)): 18.5
Kb [4, 10]: 0.01 µM
Kb [4, 11]: 0.00288 µM
IC50 [5]: 11.7 µM
GPI naloxone DR [6]: 2.17
GPI nor-BN1 DR [6]: 2.05
GPI nor-BN1 Ke [6]: 19.0
GPI nor-BN1 pA2 [6]: 7.72
IC50 [9, 12]: 2.6 µg/mL

Oc1ccc2c3c1O[C@H]1c4[nH]c5ccccc5c4C[C@@]4(O)[C@@H](C2)N(CC2CC2)CC[C@]314 [NTI, nartol indole, reference compound]
Ki ratio μ/δ ([8]; selectivity ratio): 100
inhibition at 0.1 µg/mL [9, 14]: 0%
inhibition at 0.5 µg/mL [9, 14]: 0%
inhibition at 0.75 µg/mL [9, 14]: 0%
inhibition at 1 µg/mL [9, 14]: 0%
inhibition at 2.5 µg/mL [9, 14]: 0%
inhibition at 5 µg/mL [9, 14]: 15%
inhibition at 7.5 µg/mL [9, 14]: 35%
inhibition at 10 µg/mL [9, 14]: 62%
inhibition at 12.5 µg/mL [9, 14]: 85%
inhibition at 15 µg/mL [9, 14]: 98%
inhibition at 17.5 µg/mL [9, 14]: 100%
inhibition at 20 µg/mL [9, 14]: 100%
IC50 ([9]; Mus musculus, T-cell, read-out: IC50 value, immunosuppression (text to Table 2)): 8.6 µg/mL

Oc1cccc([C@]23CCN(CC4CC4)C[C@@H]2Cc2c([nH]c4c(F)cccc24)C3)c1 (relative stereo) [Compound 29, 2-Cyclopropylmethyl-4aα-(3-hydroxyphenyl)-7-fluoro-1,2,3,4,4a,5,11,11aβ-octahydro-6H-indolo[2,3-g]isoquinoline]
Ki [7]: 1.18 µM
Ki ratio κ/μ [7]: 0.31
Ki [1]: 0.00191 µM
Ki ratio μ/δ [8]: 194
Ki ratio μ/δ ([8]; selectivity ratio): 618
Ki [2]: 0.37 µM
MVD Antagonism to DPDPE, DR ([4]; (20 nM)): 6.22
MVD Antagonism to DPDPE, DR ([4]; (50 nM)): 34.1
Kb [4, 10]: 0.00389 µM
Kb [4, 11]: 0.00151 µM
IC50 [5]: 6.64 µM
GPI naloxone DR [6]: 2.50
GPI nor-BN1 DR [6]: 2.06
GPI nor-BN1 Ke [6]: 18.9
GPI nor-BN1 pA2 [6]: 7.72
IC50 [9, 12]: 0.9 µg/mL

C=CCN1CC[C@]2(c3cccc(O)c3)Cc3[nH]c4ccccc4c3C[C@H]2C1 (relative stereo) [Compound 31, 2-Allyl-4aα-(3-hydroxyphenyl)-1,2,3,4,4a,5,11,11aβ-octahydro-6H-indolo[2,3-g]isoquinoline]
Ki [7]: 27 µM
Ki ratio κ/μ [7]: 0.09
Ki [1]: 0.00297 µM
Ki ratio μ/δ [8]: 754
Ki ratio μ/δ ([8]; selectivity ratio): > 9090
Ki [2]: 2.24 µM
Kb [4, 13]: 0.0129 µM
MVD Antagonism to DPDPE at 100 nM, DR ([4]; at 100 nM): 4.84
IC50 [5]: 20.5 µM
GPI naloxone DR [6]: 0.93
GPI nor-BN1 DR [6]: 0.98
IC50 [9, 12]: 2.6 µg/mL

Oc1cccc([C@]23CCN(CC4CC4)C[C@@H]2Cc2c([nH]c4ccccc24)C3)c1 (single isomer, unassigned) [Compound 52, (-)-2-Cyclopropylmethyl-4aα-(3-hydroxyphenyl)-1,2,3,4,4a,5,11,11aβ-octahydro-6H-indolo[2,3-g]isoquinoline]
Ki [7]: 81.1 µM
Ki [1, 15]: 0.135 µM
Ki [2]: 2.28 µM
Kb ([4]; at 100 nM): 0.158 µM
MVD Antagonism to DPDPE at 100 nM, Ke ([4]; at 100 nM): 158
IC50 [5]: 16.4 µM
GPI naloxone DR [6]: 1.06
GPI nor-BN1 DR [6]: 1.03
IC50, activity in inhibiting T cell hyperplasia (Table 3) ([9]; ConA-stimulated mouse T cells): 3.5 µg/mL

CN1CC[C@]2(c3cccc(O)c3)Cc3[nH]c4ccc(Br)cc4c3C[C@H]2C1 (relative stereo) [Compound 10, 2-Methyl-4aα-(3-hydroxyphenyl)-9-bromo-1,2,3,4,4a,5,11,11aβ-octahydro-6H-indolo[2,3-g]isoquinoline]
Ki [1, 15]: 1.39 µM
IC50 [3]: 21.9 µM
IC50 [5]: 14.3 µM
GPI naloxone DR [6]: 0.92
GPI nor-BN1 DR [6]: 1.31
GPI nor-BN1 Ke [6]: 64.5
GPI nor-BN1 pA2 [6]: 7.19
